Test results as given in patent US20250313535A1, “ALPHA 4 BETA 7 INTEGRIN MODULATORS AND USES THEREOF” (DICE MOLECULES SV, INC., priority 2022, published 2025).
pIC50: −log10 of the molar value.

Biological target: T1, α4β7 integrin (Homo sapiens (Human), UniProt P13612+P26010)
Experiment: Integrin Adhesion Assay: Protocol 1 (MAdCAM-coated plate, RPMI-8866 cells, CellTiter GLO readout)
Assay type: cell-based
Conditions: not given
Procedure: α4β7 and α4β1 inhibition was evaluated in vitro using at least one of the following procedures:
Integrin Adhesion Assay: Protocol 1
MAdCAM (R&D Systems, 0.1 ug) was diluted in 50 μL PBS, added to each well of an opaque ELISA plate (Thermo), and incubated overnight at 4° C. Coated plates were washed once with PBS and then blocked with 200 μL of assay buffer (10 mM HEPES, 150 mM NaCl, 1 mM MnCl2, 0.1 mM CaCl2), 1% BSA) for 1 hour at 37° C. and 5% CO2. After incubation, buffer was aspirated from the plates and 50 μL of fresh assay buffer is added. Compounds were added by a compouns dispenser (Tecan) and DMSO concentration was normalized to 1% across each plate. 50 μL of RPMI-8866 cells (2×10^6 per mL) were added to each well and the plates were incubated for 1 hour at 37° C. and 5% CO2. After incubation, plates were allowed to cool to RT for 10 minutes before being washed four times in assay buffer by an automated plate washer (BioTek). After washing, 100 μL of a 1:1 mixture of assay buffer and CellTiter GLO 2.0 reagent (Promega) were added to each well. Plates were mixed for 2 minutes at 1000 rpm and then allowed to incubate an additional 10 minutes before reading out luminescence on a Tecan Spark plate reader. Raw data was converted to percent inhibition based on DMSO only and control compound wells, and curves were analyzed by 4-parameter fit within Dotmatics software.

T1 sequence (P13612 34-1032): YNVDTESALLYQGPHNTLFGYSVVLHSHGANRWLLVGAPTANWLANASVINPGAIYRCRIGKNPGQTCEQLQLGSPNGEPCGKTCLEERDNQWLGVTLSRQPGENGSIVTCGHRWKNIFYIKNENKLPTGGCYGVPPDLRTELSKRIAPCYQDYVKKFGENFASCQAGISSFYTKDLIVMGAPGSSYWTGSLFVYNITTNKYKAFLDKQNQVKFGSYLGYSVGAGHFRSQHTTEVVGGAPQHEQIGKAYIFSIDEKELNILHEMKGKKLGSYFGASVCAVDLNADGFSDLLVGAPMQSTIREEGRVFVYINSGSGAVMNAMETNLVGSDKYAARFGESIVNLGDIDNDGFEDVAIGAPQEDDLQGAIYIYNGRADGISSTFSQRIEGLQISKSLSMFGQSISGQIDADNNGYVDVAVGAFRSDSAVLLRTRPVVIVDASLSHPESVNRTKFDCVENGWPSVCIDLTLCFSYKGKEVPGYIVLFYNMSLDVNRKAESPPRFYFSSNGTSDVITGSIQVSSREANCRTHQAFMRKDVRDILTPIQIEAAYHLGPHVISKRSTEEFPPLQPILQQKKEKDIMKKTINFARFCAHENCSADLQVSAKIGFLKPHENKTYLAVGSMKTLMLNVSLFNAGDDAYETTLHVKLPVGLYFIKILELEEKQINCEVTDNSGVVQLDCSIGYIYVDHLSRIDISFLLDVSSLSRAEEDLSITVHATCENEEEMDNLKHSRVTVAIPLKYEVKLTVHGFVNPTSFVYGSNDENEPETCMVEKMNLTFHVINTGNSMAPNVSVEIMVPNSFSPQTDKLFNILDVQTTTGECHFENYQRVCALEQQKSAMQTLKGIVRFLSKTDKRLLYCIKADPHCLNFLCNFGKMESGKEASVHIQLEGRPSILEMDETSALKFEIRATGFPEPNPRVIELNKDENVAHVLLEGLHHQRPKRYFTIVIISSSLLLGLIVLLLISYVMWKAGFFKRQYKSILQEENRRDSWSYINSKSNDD
T1 sequence (P26010 20-798): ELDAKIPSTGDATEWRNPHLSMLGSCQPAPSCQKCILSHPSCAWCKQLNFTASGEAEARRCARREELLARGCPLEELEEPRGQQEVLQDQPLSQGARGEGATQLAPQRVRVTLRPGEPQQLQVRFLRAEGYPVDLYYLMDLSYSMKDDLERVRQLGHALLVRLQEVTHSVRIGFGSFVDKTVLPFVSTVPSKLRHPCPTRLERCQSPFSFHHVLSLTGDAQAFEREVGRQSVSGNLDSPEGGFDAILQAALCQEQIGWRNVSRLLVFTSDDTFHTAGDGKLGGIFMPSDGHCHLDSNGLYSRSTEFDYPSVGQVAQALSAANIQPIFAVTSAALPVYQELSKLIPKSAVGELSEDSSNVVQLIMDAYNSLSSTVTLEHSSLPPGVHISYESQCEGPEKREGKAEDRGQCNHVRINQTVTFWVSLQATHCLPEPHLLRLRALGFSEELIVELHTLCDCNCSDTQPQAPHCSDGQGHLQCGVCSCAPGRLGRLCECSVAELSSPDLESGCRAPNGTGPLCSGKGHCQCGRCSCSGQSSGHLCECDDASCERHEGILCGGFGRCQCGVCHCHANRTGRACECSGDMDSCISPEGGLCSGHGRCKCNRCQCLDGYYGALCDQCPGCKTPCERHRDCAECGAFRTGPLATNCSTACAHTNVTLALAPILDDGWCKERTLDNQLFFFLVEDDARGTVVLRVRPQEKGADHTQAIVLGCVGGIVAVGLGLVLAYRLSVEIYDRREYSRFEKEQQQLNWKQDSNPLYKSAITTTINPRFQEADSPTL

Structure (SMILES)	pIC50
Cc1cccc(C)c1-c1cc(C(=O)N[C@@H](Cc2cccc3c(-c4c(C(F)(F)F)c5ccccc5n(C)c4=O)cccc23)C(=O)O)c(F)c(C(F)(F)F)c1 [Compound 303]	< 6.00
Cc1cccc(C)c1-c1cc(F)c(C(=O)N[C@@H](Cc2cccc3c(-c4c(C(F)(F)F)c5ccccc5n(C)c4=O)cccc23)C(=O)O)c(F)c1 [Compound 304]	< 6.00
Cc1cccc(C)c1-c1cc(F)c(F)c(C(=O)N[C@@H](Cc2cccc3c(-c4c(C(F)(F)F)c5ccccc5n(C)c4=O)cccc23)C(=O)O)c1 [Compound 306]	< 6.00
Cn1c(=O)c(-c2cccc3c(C[C@H](NC(=O)c4c(F)cc(N5CCC[C@@H]5C(F)(F)F)cc4F)C(=O)O)cccc23)c(C(F)(F)F)c2ccccc21 [Compound 319]	6.00 to 7.00
Cn1c(=O)c(-c2cccc3c(C[C@H](NC(=O)c4c(F)cc5[nH]c(CC(F)(F)F)nc5c4F)C(=O)O)cccc23)c(C(F)(F)F)c2ccccc21 [Compound 320]	6.00 to 7.00
Cn1c(=O)c(-c2cccc3c(C[C@H](Nc4nccc(N5CCOC[C@@H]5C(F)(F)F)c4F)C(=O)O)cccc23)c(C(F)(F)F)c2ccccc21 [Compound 326]	< 6.00
Cc1c(C(=O)N[C@@H](Cc2cccc3c(-c4c(C(F)(F)F)c5ccccc5n(C)c4=O)cccc23)C(=O)O)nn2ccccc12 [Compound 329]	< 6.00
Cn1c(=O)c(-c2cccc3c(C[C@H](NC(=O)c4c(F)cc(N5CCO[C@H](c6ccccc6)C5)cc4F)C(=O)O)cccc23)c(C(F)(F)F)c2ccccc21 [Compound 333]	< 6.00
Cn1c(=O)c(-c2cccc3c(C[C@H](NC(=O)c4c(F)cc(N5CCOC[C@H]5c5ccccc5)cc4F)C(=O)O)cccc23)c(C(F)(F)F)c2ccccc21 [Compound 334]	< 6.00
CC(C)[C@H]1COCCN1c1cc(F)c(C(=O)N[C@@H](Cc2cccc3c(-c4c(C(F)(F)F)c5ccccc5n(C)c4=O)cccc23)C(=O)O)c(F)c1 [Compound 337]	6.00 to 7.00
Cn1c(=O)c(-c2cccc3c(C[C@H](NC(=O)c4c(F)cc(N5CCO[C@@H](c6ccccc6)C5)cc4F)C(=O)O)cccc23)c(C(F)(F)F)c2ccccc21 [Compound 338]	< 6.00
Cn1c(=O)c(-c2cccc3c(C[C@H](NC(=O)c4c(F)cc(N5CCOC6(CCC6)C5)cc4F)C(=O)O)cccc23)c(C(F)(F)F)c2ccccc21 [Compound 340]	6.00 to 7.00
Cn1c(=O)c(-c2cccc3c(C[C@H](NC(=O)c4c(F)cc(N5CCOC(c6cccc(C(F)(F)F)c6)C5)cc4F)C(=O)O)cccc23)c(C(F)(F)F)c2ccccc21 (stereo partly shown) [Compound 342]	< 6.00

Next, values leading:

pIC50	Structure (SMILES)
< 6.00	Cn1c(=O)c(-c2cccc3c(C[C@H](NC(=O)c4c(F)cc(N5CCOc6ccc(C(F)(F)F)cc65)cc4F)C(=O)O)cccc23)c(C(F)(F)F)c2ccccc21 [Compound 343]
< 6.00	Cn1c(=O)c(-c2cccc3c(C[C@H](NC(=O)c4c(F)cc(N5CCOCC5c5ccc(C(F)(F)F)cc5)cc4F)C(=O)O)cccc23)c(C(F)(F)F)c2ccccc21 (stereo partly shown) [Compound 344]
< 6.00	Cn1c(=O)c(-c2cccc3c(C[C@H](NC(=O)c4c(F)cc(-c5ccc(F)c(Cl)c5)cc4F)C(=O)O)cccc23)c(C(F)(F)F)c2ccccc21 [Compound 345]
6.00 to 7.00	Cn1c(=O)c(-c2cccc3c(C[C@H](NC(=O)c4c(F)cc5cn(CC(F)(F)F)nc5c4F)C(=O)O)cccc23)c(C(F)(F)F)c2ccccc21 [Compound 348]
< 6.00	Cc1cccc(C)c1-c1nc(C(=O)N[C@@H](Cc2cccc3c(-c4c(C(F)(F)F)c5ccccc5n(C)c4=O)cccc23)C(=O)O)c(C)n1C [Compound 349]
< 6.00	CN1CC(C)(Cc2cc(F)c(C(=O)N[C@@H](Cc3cccc4c(-c5c(C(F)(F)F)c6ccccc6n(C)c5=O)cccc34)C(=O)O)c(F)c2)C1 [Compound 369]
< 6.00	Cn1c(=O)c(-c2cccc3c(C[C@H](NC(=O)c4c(F)cc(OC(F)(F)F)cc4F)C(=O)O)cccc23)c(C(F)(F)F)c2ccccc21 [Compound 370]
< 6.00	Cn1c(=O)c(-c2cccc3c(C[C@H](NC(=O)c4c(F)cc(C5CCCCC5)cc4F)C(=O)O)cccc23)c(C(F)(F)F)c2ccccc21 [Compound 376]
< 6.00	Cn1c(=O)c(-c2cccc3c(C[C@H](NC(=O)c4c(F)ccc(C5CCCCC5)c4F)C(=O)O)cccc23)c(C(F)(F)F)c2ccccc21 [Compound 377]
6.00 to 7.00	Cn1c(=O)c(-c2cccc3c(C[C@H](NC(=O)c4c(F)cc(N5CCC(F)(F)CC5)cc4F)C(=O)O)cccc23)c(C(F)(F)F)c2ccccc21 [Compound 379]
6.00 to 7.00	CN1CCC(c2cc(F)c(C(=O)N[C@@H](Cc3cccc4c(-c5c(C(F)(F)F)c6ccccc6n(C)c5=O)cccc34)C(=O)O)c(F)c2)CC1 [Compound 383]

Same assay, conditions: integrin adhesion assay; determined by at least one of the assays described (protocol not specified)

pIC50	Structure (SMILES)
7.00 to 8.00	CC1(C)NC(=O)c2c(-c3cccc4c(C[C@H](NC(=O)c5c(F)cccc5F)C(=O)O)cccc34)cccc21 [Compound 5]
7.00 to 8.00	Cn1ccc(=O)n(-c2cccc3c(C[C@H](NC(=O)C4(C(F)(F)F)CCCCC4)C(=O)O)cccc23)c1=O [Compound 13]
7.00 to 8.00	Cn1ccc(=O)n(-c2cccc3c(C[C@H](NC(=O)c4c(F)ccc(C#N)c4F)C(=O)O)cccc23)c1=O [Compound 32]
6.00 to 7.00	Cn1ccc(=O)n(-c2cccc3c(C[C@H](NC(=O)[C@@H]4CCCN4S(=O)(=O)c4ccccc4)C(=O)O)cccc23)c1=O [Compound 109]
< 6.00	Cn1ccc(=O)n(-c2cccc3c(C[C@H](NC(=O)C4(C)CCCN(CC(F)(F)F)C4)C(=O)O)cccc23)c1=O (stereo partly shown) [Compound 121]
7.00 to 8.00	Cc1nn(CC(F)(F)F)c(C)c1C(=O)N[C@@H](Cc1cccc2c(-n3c(=O)ccn(C)c3=O)cccc12)C(=O)O [Compound 122]
7.00 to 8.00	Cc1nn(C2CCOCC2)c(C)c1C(=O)N[C@@H](Cc1cccc2c(-n3c(=O)ccn(C)c3=O)cccc12)C(=O)O [Compound 123]
< 6.00	Cc1nccc(O)c1C(=O)N[C@@H](Cc1cccc2c(-n3c(=O)ccn(C)c3=O)cccc12)C(=O)O [Compound 125]
> 8.00	Cn1ccc(=O)n(-c2cccc3c(C[C@H](NC(=O)c4c(F)ccc(NS(=O)(=O)C5CC5)c4F)C(=O)O)cccc23)c1=O [Compound 134]
7.00 to 8.00	C=CCc1cn(C)c(=O)n(-c2cccc3c(C[C@H](NC(=O)c4c(F)cccc4F)C(=O)O)cccc23)c1=O [Compound 136]
7.00 to 8.00	Cn1ccc(C(F)(F)F)c(-c2cncc3c(C[C@H](NC(=O)c4c(F)cccc4F)C(=O)O)cccc23)c1=O [Compound 211]
6.00 to 7.00	Cn1ccc(C(F)(F)F)c(-c2ccnc3c(C[C@H](NC(=O)c4c(F)cccc4F)C(=O)O)cccc23)c1=O [Compound 212]

Biological target: T1, α4β7 integrin
Experiment: Integrin Adhesion Assay: Protocol 4 (MAdCAM-coated plate, RPMI-8866 cells with stable LOF mutation of the ITGB1 gene)
Assay type: cell-based
Conditions: Protocol 4; RPMI-8866 cells with LOF mutation of ITGB1, MAdCAM; read-out: Mean IC50 α4β7 KO
How it was run: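 RPMI-8866 cells with CRISPR/Cas9 knockout of ITGB1 (2×10^6/mL) were added to MAdCAM-coated wells with compound (1% DMSO) in HEPES/NaCl buffer with 1 mM MnCl2, 0.1 mM CaCl2 and 1% BSA, then incubated 1 h at 37 °C. After four washes, adherent cells were quantified by CellTiter-Glo luminescence. Percent inhibition versus DMSO and control compound was fitted to 4-parameter curves.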

pIC50	Structure (SMILES)
7.00 to 8.00	Cn1c(=O)c(-c2cccc3c(C[C@H](NC(=O)c4c(F)cccc4F)C(=O)O)cccc23)c(C(F)(F)F)c2cc(CO)ccc21 [Compound 1043]
> 8.00	CCc1c(CN(C)C)ccc(OC)c1-c1cccc2c(C[C@H](NC(=O)c3c(C)cccc3F)C(=O)O)cccc12 [Compound 1044]
> 8.00	COc1ccc(C2(N(C)C)CC2)c(OC)c1-c1cccc2c(C[C@H](NC(=O)c3c(C)cccc3F)C(=O)O)cccc12 [Compound 1045]
6.00 to 7.00	Cn1c(=O)c(-c2cccc3c(C[C@H](NC(=O)c4c(F)cccc4F)C(=O)O)cccc23)c(C(F)(F)F)c2cc(C3CCCO3)ccc21 (stereo partly shown) [Compound 1046]
6.00 to 7.00	Cn1c(=O)c(-c2cccc3c(C[C@H](NC(=O)C4(C(F)(F)F)CCCN(CC5COC5)C4)C(=O)O)cccc23)c(C(F)(F)F)c2ccccc21 (stereo partly shown) [Compound 1049]
7.00 to 8.00	Cn1c(=O)c(-c2cccc3c(C[C@H](NC(=O)C4(C)CCCN(C5COC5)CC4)C(=O)O)cccc23)c(C(F)(F)F)c2ccccc21 (stereo partly shown) [Compound 1050]
> 8.00	Cn1c(=O)c(-c2cccc3c(C[C@H](NC(=O)c4c(F)cccc4F)C(=O)O)cccc23)c(C(F)(F)F)c2cc(CN)ccc21 [Compound 1051]
> 8.00	Cc1cccc(F)c1C(=O)N[C@@H](Cc1cccc2c(-c3c(C(F)(F)F)c4cc(CCCN(C)C)ccc4n(C)c3=O)cccc12)C(=O)O [Compound 1053]

Biological target: α4β1 integrin (Homo sapiens (Human), UniProt P05556+P13612)
Sequence (P13612 34-1032): as the sequence (P13612 34-1032) above
Sequence (P05556 21-798): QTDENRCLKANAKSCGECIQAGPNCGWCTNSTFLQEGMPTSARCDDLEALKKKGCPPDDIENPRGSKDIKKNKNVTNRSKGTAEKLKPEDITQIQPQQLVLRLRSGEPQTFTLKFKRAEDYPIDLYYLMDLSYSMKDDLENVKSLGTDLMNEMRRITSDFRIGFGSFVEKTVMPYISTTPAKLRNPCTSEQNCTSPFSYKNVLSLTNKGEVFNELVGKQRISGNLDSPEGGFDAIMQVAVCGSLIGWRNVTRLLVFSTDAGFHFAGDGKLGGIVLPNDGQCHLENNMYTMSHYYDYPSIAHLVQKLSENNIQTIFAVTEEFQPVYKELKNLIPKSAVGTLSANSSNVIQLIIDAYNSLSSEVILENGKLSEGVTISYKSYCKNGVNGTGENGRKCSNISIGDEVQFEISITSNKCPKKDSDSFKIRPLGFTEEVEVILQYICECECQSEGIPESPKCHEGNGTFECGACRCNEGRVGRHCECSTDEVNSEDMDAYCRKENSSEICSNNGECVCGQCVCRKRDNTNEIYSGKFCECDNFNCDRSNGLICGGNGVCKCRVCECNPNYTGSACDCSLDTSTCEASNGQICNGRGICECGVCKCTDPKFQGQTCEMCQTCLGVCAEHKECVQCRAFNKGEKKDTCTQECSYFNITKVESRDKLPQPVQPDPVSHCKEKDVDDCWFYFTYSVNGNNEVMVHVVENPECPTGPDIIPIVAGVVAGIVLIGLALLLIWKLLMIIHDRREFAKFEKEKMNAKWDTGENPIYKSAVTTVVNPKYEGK
Experiment: Integrin Adhesion Assay: Protocol 5 (VCAM-coated plate, RPMI-8866 cells with stable LOF mutation of the ITGB7 gene)
Assay type: cell-based
Conditions: Protocol 5; RPMI-8866 cells with LOF mutation of ITGB7, VCAM; read-out: Mean IC50 α4β1 KO
How it was run: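 RPMI-8866 B cells with CRISPR/Cas9 ITGB7 knockout (clonal, verified by flow cytometry) adhered to VCAM-coated wells for 1 h at 37° C in HEPES/NaCl buffer with 1 mM MnCl2, 0.1 mM CaCl2, 1% BSA, 1% DMSO. Bound cells quantified by CellTiter-Glo luminescence after washing; % inhibition versus DMSO and control, 4-parameter fit.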

pIC50	Structure (SMILES)
< 6.00	Cn1c(=O)c(-c2cccc3c(C[C@H](NC(=O)c4c(F)cccc4F)C(=O)O)cccc23)c(C(F)(F)F)c2cc(CO)ccc21 [Compound 1043]
6.00 to 7.00	CCc1c(CN(C)C)ccc(OC)c1-c1cccc2c(C[C@H](NC(=O)c3c(C)cccc3F)C(=O)O)cccc12 [Compound 1044]
6.00 to 7.00	COc1ccc(C2(N(C)C)CC2)c(OC)c1-c1cccc2c(C[C@H](NC(=O)c3c(C)cccc3F)C(=O)O)cccc12 [Compound 1045]
< 6.00	Cn1c(=O)c(-c2cccc3c(C[C@H](NC(=O)c4c(F)cccc4F)C(=O)O)cccc23)c(C(F)(F)F)c2cc(C3CCCO3)ccc21 (stereo partly shown) [Compound 1046]
< 6.00	Cn1c(=O)c(-c2cccc3c(C[C@H](NC(=O)C4(C(F)(F)F)CCCN(CC5COC5)C4)C(=O)O)cccc23)c(C(F)(F)F)c2ccccc21 (stereo partly shown) [Compound 1049]
< 6.00	Cn1c(=O)c(-c2cccc3c(C[C@H](NC(=O)C4(C)CCCN(C5COC5)CC4)C(=O)O)cccc23)c(C(F)(F)F)c2ccccc21 (stereo partly shown) [Compound 1050]
6.00 to 7.00	Cn1c(=O)c(-c2cccc3c(C[C@H](NC(=O)c4c(F)cccc4F)C(=O)O)cccc23)c(C(F)(F)F)c2cc(CN)ccc21 [Compound 1051]
6.00 to 7.00	Cc1cccc(F)c1C(=O)N[C@@H](Cc1cccc2c(-c3c(C(F)(F)F)c4cc(CCCN(C)C)ccc4n(C)c3=O)cccc12)C(=O)O [Compound 1053]
